Where a chain is given by its changes, count along the chain named. Several values for one entry are separate records, joined by “and”; a condition that tells them apart may be missing. Identical values can stand only once.
Experiments:
[1] = molecular target: T1, E129V mutant human TP receptor (Homo sapiens, UniProt P21731, E129V); design: method as in PMID 20383734; conditions: E129V vs WT; cited from earlier work
T1 construct: expressed in transfected cells; host or cells: HEK293
T1 sequence (P21731 1-343 E129V): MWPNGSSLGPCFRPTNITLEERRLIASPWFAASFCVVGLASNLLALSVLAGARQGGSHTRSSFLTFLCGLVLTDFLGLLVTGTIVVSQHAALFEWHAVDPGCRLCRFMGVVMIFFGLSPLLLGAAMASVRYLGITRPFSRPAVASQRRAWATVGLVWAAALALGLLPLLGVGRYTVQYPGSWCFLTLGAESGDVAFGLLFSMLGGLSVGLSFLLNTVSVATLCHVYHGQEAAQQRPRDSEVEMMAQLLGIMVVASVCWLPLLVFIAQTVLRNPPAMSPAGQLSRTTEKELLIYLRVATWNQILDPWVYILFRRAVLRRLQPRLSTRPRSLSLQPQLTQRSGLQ

E240V mutant TP receptor = tested on: E240V mutant TP receptor; design: method as in PMID 20383734; conditions: E240V vs WT; cited from earlier work
[2] = molecular target: T2, double mutant E129V/E240V of human TP receptor (Homo sapiens, UniProt P21731, E129V/E240V); assay: Total inositol phosphate (IP) accumulation, E129V/E240V double mutant, rescue with SQ29,548; type: cell-based; conditions: HEK293 cells, E129V/E240V double mutant after rescue with 1 µM SQ29,548 for 18 h; ±33%CV
T2 construct: expressed in transfected cells; host or cells: HEK293
T2 sequence (P21731 1-343 E129V/E240V): T1 sequence (P21731 1-343 E129V) with E240V
Experimental: Receptor expression and functional activity were monitored 48 hours after transfection. […] Heterologous competition studies involved concentrations of the indicated unlabeled ligands extending from 0.1 nM to 30 µM. After 30 min incubation at 25 °C, the reaction was stopped by aspiration of the medium, cells were washed with ice-cold PBS containing 0.2% (w/v) BSA and lysed in 0.5 N NaOH. Radioactivity was measured by liquid scintillation counting. Binding data were analyzed as described in Data and Statistical Analysis. Quantification of the total labeled inositol phosphates (IP) accumulation was performed using a conventional gravity flow column chromatography, as described previously, [19]. […] The total IP fraction was then eluted with 2 M ammonium formate/formic acid buffer at pH 5 and radioactivity determined by liquid scintillation counting. […]
All average results are presented as mean±S.E. When indicated, ANOVA followed by post-hoc test for multiple comparisons was performed. Data from radioligand binding were evaluated by a nonlinear, least-squares curve-fitting procedure using GraphPad Prism version 4, implemented with the n-ligand m-binding site model, as described in the LIGAND computer program. Concentration-response curves were evaluated using Prism 4, which use the four parameters logistic model as described in the ALLFIT program. […]

WT human TP receptor = molecular target: T3, WT human TP receptor (Homo sapiens, UniProt P21731); assay: Total inositol phosphate (IP) accumulation, WT receptor; type: cell-based; conditions: HEK293 cells, 30 min stimulation, value ±%CV
T3 construct: expressed in transfected cells; host or cells: HEK293
T3 sequence (P21731 1-343): T1 sequence (P21731 1-343 E129V) with V129E
Experimental: (§1) Receptor expression and functional activity were monitored 48 hours after transfection. […] Heterologous competition studies involved concentrations of the indicated unlabeled ligands extending from 0.1 nM to 30 µM. After 30 min incubation at 25 °C, the reaction was stopped by aspiration of the medium, cells were washed with ice-cold PBS containing 0.2% (w/v) BSA and lysed in 0.5 N NaOH. Radioactivity was measured by liquid scintillation counting. Binding data were analyzed as described in Data and Statistical Analysis. Quantification of the total labeled inositol phosphates (IP) accumulation was performed using a conventional gravity flow column chromatography, as described previously, [19]. Briefly, the day before the assay, cells were labeled with 0,5 µCi of [myo-2-^3H]inositol (17 Ci/mmol) for 18–20 hours in serum-free, inositol-free DMEM containing 20 mM HEPES buffer, pH 7.4, and 0.5% (w/v) Albumax I. The day of the assay, media was replaced with serum-free, inositol-free DMEM containing 25 mM LiCl and cells stimulated for 30 min with the indicated agonists. After removal of the medium, cells were lysed with 10 mM formic acid and lysates were applied onto an anion exchange AG 1X-8 column, formate form, 200–400 mesh. The total IP fraction was then eluted with 2 M ammonium formate/formic acid buffer at pH 5 and radioactivity determined by liquid scintillation counting. Rescue experiments were performed essentially as above, except for a 18 hours incubation step with 1 µΜof […] followed by its removal by washing three times with ice-cold PBS containing 1 mM MgCl2 and 0.1 mM CaCl2 before starting the experiment.
(§2) All average results are presented as mean±S.E. When indicated, ANOVA followed by post-hoc test for multiple comparisons was performed. Data from radioligand binding were evaluated by a nonlinear, least-squares curve-fitting procedure using GraphPad Prism version 4, implemented with the n-ligand m-binding site model, as described in the LIGAND computer program. Concentration-response curves were evaluated using Prism 4, which use the four parameters logistic model as described in the ALLFIT program. Parameter errors are all expressed in percentage coefficient of variation (%CV) and calculated by simultaneous analysis of at least two different independent experiments performed in duplicate or triplicate. Parameter comparison has been performed on the base of the F test for extra sum of square principle. All curves shown are computer generated.

[3] = molecular target: T1, E129V mutant human TP receptor; assay: [3H]SQ29,548 radioligand binding (mixed-type and heterologous competition), E129V mutant; conditions: HEK293 cells
Experimental: as §1, §2
Thus, transfection conditions were adjusted to secure equivalent levels of receptor expression for WT and mutants as previously described, [17], [19]. […] All the experiments were conducted within this range of receptor expression, if not specified differently.

Compound: CCCCC[C@H](O)/C=C/[C@@H]1[C@@H](C/C=C\CCCC(=O)O)[C@H]2CO[C@@H]1C2 (relative stereo) [U46619, [1R-[1α,4α,5β(Z),6α(1E,3S*)]]-7-[6-(3-hydroxy-1-octenyl)-2-oxabicyclo[2.2.1]hept-5-yl]-5-heptenoic acid]
- Fold lower EC50 than WT, total IP formation [1]: 10 fold
- Fold lower EC50 than WT, total IP formation (E240V mutant TP receptor): 10 fold
- EC50 [2]: 0.00166 µM
- Emax, total IP (WT human TP receptor; no Gαq overexpression): 12374±8 dpm/well
- EC50 (WT human TP receptor): 0.0987 ± 0.07 µM
- Ki ([3]; E129V, competition vs 1 nM [3H]SQ29,548, 25°C 30 min, value ±%CV): 0.0163 ± 0.018 µM
- Affinity ratio (Ki WT over Ki E129V) ([3]; WT vs E129V): 10 and 10.4
